Patent US4521422A, “Aryl and heteroaryl[7-(aryl and heteroaryl)pyrazolo[1,5-a]pyrimidin-3-yl]methanones” (American Cyanamid Company, priority 1984, dated 1985)

What follows are compounds tested on Clonic Seizures Caused by Pentylenetetrazole in Rats (assay: Protection against clonic seizures caused by pentylenetetrazole in rats). Settings: Rattus norvegicus; dose 25.0 mg/kg, oral or i.p.; pentylenetetrazole 23 mg/kg i.v. at 30 or 60 min; read-out: % of Rats Protected.
Format: in vivo
Description: The anti-anxiety and anticonvulsant properties of the novel compounds of the present invention have been established in a test which indicates anxiolytic and antiepileptic activity by the measure of protection from convulsions resulting from the administration of pentylenetetrazole. Single or graded dose levels of the test compounds were administered orally or intraperitoneally in a 2% starch vehicle, containing 0.5% v/v polyethylene glycol and one drop of Polysorbate 80 to groups of at least 4 rats. At 30 or 60 minutes, the rats were treated intravenously with pentylenetetrazole at a dose of 23 mg/kg of body weight. This dose is estimated to cause clonic seizures in 99% of unprotected rats. It has been reported [R. T. Hill and D. H. Tedeschi, "Animal Testing and Screening Procedures in Evaluating Psychotropic Drugs" in "An Introduction to Psychopharmacology", Eds. R. R. Rech and K. E. Moore, Raven Press, New York, pp 237-288 (1971)] that there is a high degree of correlation between antagonism of pentylenetetrazole seizures in rats and anti-anxietyor anticonvulsant effects in higher warm-blooded animals.

Row | SMILES | responders at 25 mg/kg [%]
1 | O=C(c1ccc2c(c1)OCO2)c1cnn2c(-c3ccncc3)ccnc12 [1,3-benzodioxol-5-yl[7-(4-pyridinyl)pyrazolo[1,5-a]pyrimidin-3-yl]methanone] | 25
2 | O=C(c1ccc2ccccc2c1)c1cnn2c(-c3cccnc3)ccnc12 [2-naphthalenyl[7-(3-pyridinyl)pyrazolo[1,5-a]pyrimidin-3-yl]methanone] | 25
3 | O=C(c1ccccn1)c1cnn2c(-c3ccc(C(F)(F)F)cc3)ccnc12 [2-pyridinyl[7-[4-(trifluoromethyl)phenyl]pyrazolo[1,5-a]pyrimidin-3-yl]methanone] | 25
4 | O=C(c1cccs1)c1cnn2c(-c3ccc(C(F)(F)F)cc3)ccnc12 [2-thienyl[7-[4-(trifluoromethyl)phenyl]pyrazolo[1,5-a]pyrimidin-3-yl]methanone] | 25
5 | O=C(c1ccsc1)c1cnn2c(-c3cccc(C(F)(F)F)c3)ccnc12 [3-thienyl[7-[3-(trifluoromethyl)phenyl]pyrazolo[1,5-a]pyrimidin-3-yl]methanone] | 75
6 | N#Cc1ccc(-c2ccnc3c(C(=O)c4ccc(F)cc4)cnn23)cc1 [4-[3-(4-fluorobenzoyl)pyrazolo[1,5-a]pyrimidin-7-yl]benzonitrile] | 50
7 | O=C(c1cc(Cl)ccc1Cl)c1cnn2c(-c3cccnc3)ccnc12 [(2,5-dichlorophenyl)[7-(3-pyridinyl)pyrazolo[1,5-a]pyrimidin-3-yl]methanone] | 25
8 | O=C(c1cc(Cl)ccc1Cl)c1cnn2c(-c3ccc(F)cc3)ccnc12 [(2,5-dichlorophenyl)[7-(4-fluorophenyl)pyrazolo[1,5-a]pyrimidin-3-yl]methanone] | 25
9 | O=C(c1cc(Cl)ccc1Cl)c1cnn2c(-c3ccncc3)ccnc12 [(2,5-dichlorophenyl)[7-(4-pyridinyl)pyrazolo[1,5-a]pyrimidin-3-yl]methanone] | 25
10 | O=C(c1ccccc1Cl)c1cnn2c(-c3ccncc3)ccnc12 [(2-chlorophenyl)[7-(4-pyridinyl)pyrazolo[1,5-a]pyrimidin-3-yl]methanone] | 25
11 | COc1ccccc1C(=O)c1cnn2c(-c3cccnc3)ccnc12 [(2-methoxyphenyl)[7-(3-pyridinyl)pyrazolo[1,5-a]pyrimidin-3-yl]methanone] | 75
12 | Cc1ccccc1C(=O)c1cnn2c(-c3cccnc3)ccnc12 [(2-methylphenyl)[7-(3-pyridinyl)pyrazolo[1,5-a]pyrimidin-3-yl]methanone] | 25
13 | Cc1ccccc1C(=O)c1cnn2c(-c3ccncc3)ccnc12 [(2-methylphenyl)[7-(4-pyridinyl)pyrazolo[1,5-a]pyrimidin-3-yl]methanone] | 25
14 | Cc1ccccc1C(=O)c1cnn2c(-c3ccc(C(F)(F)F)cc3)ccnc12 [(2-methylphenyl)[7-[4-(trifluoromethyl)phenyl]pyrazolo[1,5-a]pyrimidin-3-yl]methanone] | 25
15 | COc1ccc(C(=O)c2cnn3c(-c4cc(OC)c(OC)c(OC)c4)ccnc23)cc1OC [(3,4-dimethoxyphenyl)[7-(3,4,5-trimethoxyphenyl)pyrazolo[1,5-a]pyrimidin-3-yl]methanone] | 75
16 | COc1ccc(C(=O)c2cnn3c(-c4ccncc4)ccnc23)cc1OC [(3,4-dimethoxyphenyl)[7-(4-pyridinyl)pyrazolo[1,5-a]pyrimidin-3-yl]methanone] | 50
17 | O=C(c1cccc(Cl)c1)c1cnn2c(-c3cccnc3)ccnc12 [(3-chlorophenyl)[7-(3-pyridinyl)pyrazolo[1,5-a]pyrimidin-3-yl]methanone] | 50
18 | O=C(c1cccc(Cl)c1)c1cnn2c(-c3ccc(F)cc3)ccnc12 [(3-chlorophenyl)[7-(4-fluorophenyl)pyrazolo[1,5-a]pyrimidin-3-yl]methanone] | 25
19 | O=C(c1cccc(Cl)c1)c1cnn2c(-c3ccncc3)ccnc12 [(3-chlorophenyl)[7-(4-pyridinyl)pyrazolo[1,5-a]pyrimidin-3-yl]methanone] | 50
